Data taken from US20260263425A1, “USE OF COMPOSITION CONTAINING CANDESARTAN OR AZILSARTAN” (GACHON UNIVERSITY OF INDUSTRY-ACADEMIC COOPERATION …, priority 2023, published 2026).

Legend:
HepG2 cells [1] = experiment: Intracellular Ca2+ level and lipid accumulation in palmitic acid-treated HepG2 cells (confocal microscopy, fluorescent dyes); format: cell-based, Human; details: for lipid accumulation: palmitic acid-treated HepG2, BODIPY; for fluorescence intensity for intracellular Ca2+: palmitic acid-treated HepG2, Calbryte 630 AM
Description: Subsequently, to determine whether ARBs can regulate intracellular Ca^2+ levels and lipid accumulation in HepG2 cells treated with palmitic acid, the effects of ARBs were evaluated using confocal microscopy and the fluorescent dyes Calbryte 630 AM (for intracellular Ca^2+) and BODIPY (for lipids).
Specifically, for intracellular Ca^2+ concentration and lipid accumulation, HepG2 cells were plated on slide glasses, treated with 0.5 mM palmitic acid for 16 hours, and incubated with 4 μM Fura-2-AM (Teflabs), […] Calbryte 630 AM, or […] BODIPY in PBS for 30 minutes at 37° C. in the dark. The cells were then washed with PBS for 10 minutes. Subsequently, the cells were counterstained with 4,6-diamidino-2-phenylindole (DAPI) to visualize nuclei. After mounting, the stained slides were imaged using a Zeiss LSM 700 or Zeiss LSM 980 laser scanning confocal microscope (Carl Zeiss) and analyzed using ZEN 2010 Software (Carl Zeiss). Intracellular Ca^2+ was quantified from the microscopic images using the NIH ImageJ software (https://imagej.nih.gov/ij/, 1997-2017). […]

AKT PH domain [2] = experiment: Insulin-stimulated membrane localization of AKT PH domain in palmitic acid-treated HepG2 cells; format: cell-based, Human; details: 100 nM insulin 15 min, AKT PH mCherry
Description: One mechanism of insulin resistance is that, in the state of obesity and diabetes, an increase in the concentration of calcium in the cytoplasm leads to calcium binding to PI(3, 4, 5)P3 present in the cell membrane, generating Ca^2+-PI(3, 4, 5)P3, which inhibits binding to the PH domain of AKT and suppresses AKT protein activity, thereby inducing insulin resistance. Accordingly, it was evaluated whether azilsartan and candesartan, which were shown in the above examples to attenuate palmitic acid-induced intracellular Ca^2+ overload, regulate the intracellular localization of the AKT PH domain, which functions as a biosensor for PI(3, 4, 5)P3.
(§1) Specifically, CHO cells or HepG2 cells were transfected with cDNA encoding hAKT PHD (residues 1 to 144) using Lipofectamine (Life Technologies). To monitor the intracellular localization of endogenous AKT, liver sections were antigen activated with 10 mM Tris/HCl (pH 9.0) for 20 minutes, treated with serum-free protein blocking solution (DAKO) for 30 minutes, and permeabilized with 0.5% Tween 20 for 15 minutes. The liver sections were then incubated with anti-AKT PHD antibody (SKB1, #05-591, Sigma-Aldrich) and FITC-conjugated secondary antibody. After mounting, the liver sections were imaged with an LSM 980 laser scanning confocal microscope (Carl Zeiss), and the images were analyzed using ZEN software (Carl Zeiss).
When administering azilsartan or candesartan to cells, the impairment induced by palmitic acid was recovered.

HFD-fed mice = experiment: Postprandial phosphorylation of AKT and downstream substrates in HFD-fed mice; format: in vivo; details: fasted overnight, re-fed HFD 4 hours
Description: Tissues and cells were lysed using a modified RIPA buffer (50 mM Tris-HCl pH 7.4, 1% Triton X-100, 150 mM NaCl, 1 mM EDTA; Cell Signaling Technology) freshly supplemented with 1 mM Na3VO4, […], and protease inhibitor cocktail (Complete Mini, Roche). Equal amounts of proteins were separated on 4-12% gels and electrophoretically transferred to polyvinylidene difluoride (PVDF) membranes. Immunoblots were visualized with horseradish peroxidase-conjugated secondary antibodies and enhanced chemiluminescence kits (ECL kits; GE Healthcare Life Sciences) using a charge-coupled device camera (Amersham ImageQuant 800). To elucidate the role of candesartan on insulin signaling in vivo, mice were fasted overnight and then re-fed an HFD for 4 hours, and postprandial phosphorylation of AKT and its downstream signaling substrates FOXO1A, FOXO3A, GSK3B, and AS160 was measured.

HepG2 cells [3] = experiment: Insulin-stimulated phosphorylation of Akt and downstream molecules in palmitic acid-treated HepG2 cells (immunoblot); format: cell-based, Human; details: HepG2, 0.5 mM palmitic acid 16 h, ARB 5, 10, 20 μM; dose-dependent
Description: Tissues and cells were lysed using a modified RIPA buffer (50 mM Tris-HCl pH 7.4, 1% Triton X-100, 150 mM NaCl, 1 mM EDTA; Cell Signaling Technology) freshly supplemented with 1 mM Na3VO4, […], and protease inhibitor cocktail (Complete Mini, Roche). Equal amounts of proteins were separated on 4-12% gels and electrophoretically transferred to polyvinylidene difluoride (PVDF) membranes. Immunoblots were visualized with horseradish peroxidase-conjugated secondary antibodies and enhanced chemiluminescence kits (ECL kits; GE Healthcare Life Sciences) using a charge-coupled device camera (Amersham ImageQuant 800). Specifically, nine FDA-approved ARBs (losartan, eprosartan, fimasartan, irbesartan, olmesartan, telmisartan, valsartan, azilsartan, and candesartan) commonly prescribed for the treatment of hypertension in human patients were administered to HepG2 cells at various concentrations (5 μM, 10 μM, and 20 μM) in combination with 0.5 mM palmitic acid for 16 hours. Then, the insulin-stimulated phosphorylation of the key insulin signaling molecule Akt and its downstream signaling molecules GSK3β and FOXO3 was investigated. The results of Example 1 indicate that azilsartan and candesartan have beneficial off-target effects on insulin signaling and intracellular Ca^2+ homeostasis that are distinct from their known effects as angiotensin receptor blockers. […]

AKT PH domain [4] = experiment: Insulin-stimulated membrane localization of AKT PH domain in PMA-treated CHO-IR cells; format: cell-based, Chinese hamster
Description: as §1, with “Zeiss). Similarly, in phorbol myristate acetate (PMA)-treated Chinese hamster ovary-insulin receptor (CHO-IR) cells, it was confirmed that insulin-stimulated membrane localization of the AKT PH domain was rescued by treatment with azilsartan or candesartan (FIG. 3b).” for “Zeiss).”

| Structure (SMILES) | lipid accumulation (HepG2 cells [1]) | fluorescence intensity for intracellular Ca2+ (HepG2 cells [1]) | palmitic acid-induced impairment of insulin-stimulated membrane localization of the AKT PH domain (AKT PH domain [2]) | postprandial phosphorylation of AKT, FOXO1A, FOXO3A, GSK3B, and AS160, increase compared to the control group (HFD-fed mice) | insulin-stimulated phosphorylation of Akt, GSK3B, and FOXO3 (HepG2 cells [3]) | insulin-stimulated membrane localization of the AKT PH domain (AKT PH domain [4]) |
| --- | --- | --- | --- | --- | --- | --- |
| CCCCC1=NC2(CCCC2)C(=O)N1Cc1ccc(-c2ccccc2-c2nnn[nH]2)cc1 [irbesartan] | did not significantly affect | did not significantly affect | did not rescue |  |  |  |
| CCCCc1ncc(/C=C(\Cc2cccs2)C(=O)O)n1Cc1ccc(C(=O)O)cc1 [eprosartan] | did not significantly affect | did not significantly affect | did not rescue |  |  |  |
| CCOc1nc2cccc(C(=O)O)c2n1Cc1ccc(-c2ccccc2-c2nnn[nH]2)cc1 [candesartan] |  |  |  | 4- to 10 fold |  |  |
| CCOc1nc2cccc(C(=O)O)c2n1Cc1ccc(-c2ccccc2-c2nc(=O)o[nH]2)cc1 [azilsartan] | significantly reduced | significantly reduced | recovered |  | completely restored | rescued |
| CCCCc1nc(Cl)c(CO)n1Cc1ccc(-c2ccccc2-c2nn[nH]n2)cc1 [losartan] | did not significantly affect | did not significantly affect | did not rescue |  |  |  |
| CCCc1nc2c(C)cc(-c3nc4ccccc4n3C)cc2n1Cc1ccc(-c2ccccc2C(=O)O)cc1 [telmisartan] | did not significantly affect | did not significantly affect | did not rescue |  |  |  |
